According to patent US20240335431A1, “1-H-PYRROLO[2,3-c]PYRIDINE COMPOUNDS” (Acerta Pharma B.V., priority 2023, published 2024):
pIC50, pKi: −log10 of the molar value.

Experiments:
Menin protein = Menin protein (Homo sapiens, UniProt O00255, DEL460-519); experiment: Menin/MLL fluorescence polarization (FP) assay; format: binding; details: Menin 2 nM, cRho110-Ahx-MBM1/MBM2 peptide 1 nM
Method: Compounds were tested in a biochemical binding assay using Menin protein at 2 nM (N6his-tev-Menin_4i80, PB-20-1459) and the substrate cRho110-Ahx-MBM1/MBM2 peptide (UbiQ, UbiQ-Q20201030; cRh110-Ahx-[…]-QRVPALLLPPG-NH2) at 1 nM.
384 Low volume black plates (Corning #4514) were used. 5 μL/well compound or 3% DMSO was added at 10-fold serial dilutions in DMSO from 10 μM. 5 μL/well cRho110-Ahx-MBM1/MBM2 peptide or binding buffer (50 mM Tris pH 7.5, 50 mM NaCl, 1 mM TCEP, 0.01% BGG, 0.01% Brij-35) was added to all wells. 5 μL/well Menin protein or binding buffer (50 mM Tris pH 7.5, 50 mM NaCl, 1 mM TCEP, 0.01% BGG, 0.01% Brij-35) was added to all wells. Plates were read on an EnVision plate reader (Perkin Elmer) with excitation at 480 nm and emission at 535 nm P+S, and measured every 5 minutes for 180 minutes.
Data were analyzed in Genedata Screener®. IC50 values were determined by plotting % inhibition versus log compound concentration and using a one site dose response model. Raw data signals were normalized using 1% DMSO no Menin as 100% inhibitor control and 1% DMSO with Menin and no inhibitor as 0% inhibitor control.

hERG = hERG (Homo sapiens (Human), UniProt Q12809); experiment: hERG assay 2, QPatch II 48X, room temperature; format: cell-based; details: hERG DUO cell line, top 200 μM
Method: Experiments were performed on the QPatch II 48X (Sophion Biosciences) high throughput patch clamp platform at room temperature and used single hole Qplates. hERG DUO cell line (BSys) was used. The internal patch clamp solution was KF 60 mM, KCl 70 mM, HEPES 10 mM, EGTA 10 mM, and 5 mM Mg ATP (pH7.2). After sealing and whole cell access was gained the external solution (NaCl 140 mM, KCl 4 mM, HEPES 10 mM, CaCl2 2 mM, MgCl2 1 mM, glucose 5 mM (pH 7.4) was applied twice to establish stable baseline currents. An industry standard +40/−40 mV voltage protocol was applied every 15 seconds. All compounds were tested in a 6-point cumulative assay (final DMSO concentration 0.4-2% depending on stock concentration of compounds). Compounds were dispensed from initial 10 mM or 50 mM DMSO stocks after which DMSO dilutions were undertaken with a top concentration of 200 μM tested. Solvent controls were run in all experiments in line with the DMSO % required. Only wells that passed acceptance criteria for this platform were used in this analysis (500 MegaOhm seal resistance and current size >0.2 nA). Analysis was completed in Prism Graphpad to complete a composite IC50, by plotting % inhibition versus log compound concentration and using a log(inhibitor) vs. response—Variable slope.

muscarinic M2 receptor [1] = target: T1, muscarinic M2 receptor (Homo sapiens (Human), UniProt P08172); experiment: Muscarinic M2 receptor binding assay (assay 1); details: [3H]AF-DX 384 2 nM, Cheng Prusoff
Method: Cell membrane homogenates (60 μg protein) were incubated for 60 minutes at 22° C. with 2 nM [3H]AF-DX 384 in the absence or presence of the test compound in a buffer containing 50 mM Tris-HCl (pH 7.4), 120 mM NaCl, 5 mM KCl, 5 mM MgCl2, and 1 mM EDTA. Nonspecific binding was determined in the presence of 1 μM atropine. Following incubation, the samples were filtered rapidly under vacuum through glass fiber filters (GF/B, Packard) presoaked with 0.3% PEI and rinsed several times with ice-cold 50 mM Tris-HCl using a 96-sample cell harvester (Unifilter, Packard). The filters were dried then counted for radioactivity in a scintillation counter (Topcount, Packard) using a scintillation cocktail (Microscint 0, Packard). The results were expressed as a percent inhibition of the control radioligand specific binding, from which the Ki was calculated. Data were analyzed using software developed at Cerep (Hill software) and validated by comparison with data generated by the commercial software SigmaPlot®4.0 for Windows® (© 1997 by SPSS Inc.). The inhibition constant, Ki, was calculated using the Cheng Prusoff equation:
where L=concentration of ligand in the assay, and Kd=affinity of the ligand for the receptor. The standard reference compound was methoctramine, which was tested in each experiment at several concentrations to obtain a competition curve from which its IC50 was calculated.

muscarinic M2 receptor [2] = target: T1, muscarinic M2 receptor; experiment: Muscarinic M2 receptor functional assay, antagonist effect (assay 2); format: cell-based; details: cAMP, 1 μM acetylcholine
Method: Thereafter, the reference agonist acetylcholine and the adenylyl cyclase activator NKH 477 were added at respective final concentrations of 1 μM and 5 μM. For basal control measurements, acetylcholine was omitted from the wells containing 10 μM methoctramine. Following 10 minutes incubation at 37° C., the cells were lysed, and the fluorescence acceptor (D2-labeled cAMP) and fluorescence donor (anti-cAMP antibody labelled with europium cryptate) were added. After 60 minutes at room temperature, the fluorescence transfer was measured at λex=337 nm and λem=620 and 665 nm using a microplate reader (Rubystar, BMG). The cAMP concentration was determined by dividing the signal measured at 665 nm by that measured at 620 nm (ratio). The results were expressed as a percent inhibition of the control response to 1 μM acetylcholine. For test compounds and for standard reference antagonist methoctramine, which is tested in each experiment, assays were run in eight-point concentration response mode and IC50 values determined following non-linear regression curve analysis. Curve analysis was completed using software developed at Cerep (Hill software) and validated by comparison with data generated by the commercial software SigmaPlot®4.0 for Windows® (© 1997 by SPSS Inc.).

Chain of hERG (Q12809 whole entry): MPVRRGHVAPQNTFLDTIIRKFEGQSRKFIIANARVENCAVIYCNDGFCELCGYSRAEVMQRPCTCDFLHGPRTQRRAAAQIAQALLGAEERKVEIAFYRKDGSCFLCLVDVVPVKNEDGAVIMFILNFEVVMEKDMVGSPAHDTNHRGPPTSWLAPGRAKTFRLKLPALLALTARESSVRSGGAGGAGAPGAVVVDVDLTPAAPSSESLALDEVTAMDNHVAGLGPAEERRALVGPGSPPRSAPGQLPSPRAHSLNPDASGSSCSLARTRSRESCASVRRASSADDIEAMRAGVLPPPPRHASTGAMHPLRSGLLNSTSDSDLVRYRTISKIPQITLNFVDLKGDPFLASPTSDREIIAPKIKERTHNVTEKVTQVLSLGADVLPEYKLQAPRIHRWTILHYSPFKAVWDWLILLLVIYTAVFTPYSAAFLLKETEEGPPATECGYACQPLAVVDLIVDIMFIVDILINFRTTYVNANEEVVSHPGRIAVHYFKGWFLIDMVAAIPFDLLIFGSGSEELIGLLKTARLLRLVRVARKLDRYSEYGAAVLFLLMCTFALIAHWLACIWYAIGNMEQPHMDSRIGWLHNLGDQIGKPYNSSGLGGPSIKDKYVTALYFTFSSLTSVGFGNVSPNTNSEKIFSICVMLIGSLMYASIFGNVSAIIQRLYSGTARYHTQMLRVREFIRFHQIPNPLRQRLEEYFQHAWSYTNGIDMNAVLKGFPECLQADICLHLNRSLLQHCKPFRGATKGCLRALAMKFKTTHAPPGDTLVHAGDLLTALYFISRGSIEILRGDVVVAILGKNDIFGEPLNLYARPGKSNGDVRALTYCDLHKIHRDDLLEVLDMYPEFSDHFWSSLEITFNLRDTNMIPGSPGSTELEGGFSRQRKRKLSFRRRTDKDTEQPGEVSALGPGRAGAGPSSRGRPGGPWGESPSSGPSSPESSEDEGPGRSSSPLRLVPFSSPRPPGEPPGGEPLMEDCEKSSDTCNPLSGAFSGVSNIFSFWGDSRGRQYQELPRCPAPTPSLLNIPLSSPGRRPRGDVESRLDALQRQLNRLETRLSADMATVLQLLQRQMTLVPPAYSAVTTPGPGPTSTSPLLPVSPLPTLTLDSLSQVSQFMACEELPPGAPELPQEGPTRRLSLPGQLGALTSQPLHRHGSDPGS
T1 sequence (P08172 whole entry): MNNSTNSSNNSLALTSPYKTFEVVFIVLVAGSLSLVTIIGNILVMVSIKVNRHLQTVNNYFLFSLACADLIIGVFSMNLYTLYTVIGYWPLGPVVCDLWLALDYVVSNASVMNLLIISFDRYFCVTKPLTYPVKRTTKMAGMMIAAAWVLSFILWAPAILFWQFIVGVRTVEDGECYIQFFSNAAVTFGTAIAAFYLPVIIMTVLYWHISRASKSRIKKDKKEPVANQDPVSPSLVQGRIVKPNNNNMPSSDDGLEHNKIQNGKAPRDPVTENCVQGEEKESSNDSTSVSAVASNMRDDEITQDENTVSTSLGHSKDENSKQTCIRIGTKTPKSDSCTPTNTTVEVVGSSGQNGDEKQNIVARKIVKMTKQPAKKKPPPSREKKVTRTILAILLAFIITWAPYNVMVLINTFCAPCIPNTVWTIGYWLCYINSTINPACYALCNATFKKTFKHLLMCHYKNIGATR
Chain of Menin protein (O00255 with tags, fused parts or gaps DEL460-519): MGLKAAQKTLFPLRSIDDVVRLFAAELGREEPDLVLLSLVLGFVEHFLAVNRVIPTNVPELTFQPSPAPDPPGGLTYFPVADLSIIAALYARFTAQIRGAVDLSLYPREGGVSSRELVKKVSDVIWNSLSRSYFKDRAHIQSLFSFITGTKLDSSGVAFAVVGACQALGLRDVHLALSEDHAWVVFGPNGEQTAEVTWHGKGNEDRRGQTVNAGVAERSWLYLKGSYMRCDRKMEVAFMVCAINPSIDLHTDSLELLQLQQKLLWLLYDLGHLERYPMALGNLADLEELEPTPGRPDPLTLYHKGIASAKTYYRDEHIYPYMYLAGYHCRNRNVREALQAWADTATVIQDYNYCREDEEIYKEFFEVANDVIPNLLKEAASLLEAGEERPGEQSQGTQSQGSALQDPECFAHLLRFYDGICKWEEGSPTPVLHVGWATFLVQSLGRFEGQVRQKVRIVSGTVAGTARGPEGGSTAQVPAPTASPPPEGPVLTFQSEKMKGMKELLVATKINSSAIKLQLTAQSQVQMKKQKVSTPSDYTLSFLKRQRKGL

Question: With `CCN(C(=O)c1cc(F)ccc1-n1c(C)c(C(=O)C2CCN(C(=O)[C@H]3NC[C@@H]4C[C@@H]43)CC2)c2ccncc21)C(C)C` (single isomer, unassigned) [Example 48-2] as the compound, how does the pIC50 (Menin protein) read?
Answer: 7.89

Question: And the pIC50 (hERG)?
Answer: < 3.70

Question: And the pKi (muscarinic M2 receptor [1])?
Answer: 4.72

Question: How did the pIC50 (Menin protein) turn out when `CCN(C(=O)c1cc(F)ccc1-n1c(C)c(C(=O)C2CCN(C(=O)[C@@H]3CCC4(CC4)N3)CC2)c2ccncc21)C(C)C` (single isomer, unassigned) [Example 49-2] was run?
Answer: 7.54

Question: What about the pKi (muscarinic M2 receptor [1]) of the same compound?
Answer: 4.56

Question: `CCN(C(=O)c1cc(F)ccc1-n1c(C)c(C(=O)C2CCN(C(=O)[C@@H]3CCC(C)(C)N3)CC2)c2ccncc21)C(C)C` (single isomer, unassigned) [Example 50-2] was tested. Which pIC50 (Menin protein) did it give?
Answer: 7.54

Question: What about the pKi (muscarinic M2 receptor [1]) of the same compound?
Answer: 4.46

Question: `Cc1c(C(=O)C2CCN(C(=O)[C@H]3NC[C@@H]4C[C@@H]43)CC2)c2ccncc2n1-c1ccc(F)cc1C(=O)N(CC(F)(F)F)C(C)C` (single isomer, unassigned) [Example 51-2] was tested. Which pIC50 (Menin protein) did it give?
Answer: 7.66

Question: What about the pIC50 (hERG) of the same compound?
Answer: < 3.70

Question: And the pKi (muscarinic M2 receptor [1])?
Answer: 4.51

Question: With `Cc1c(C(=O)[C@@H]2CCN(C(=O)[C@H]3NC[C@@H]4C[C@@H]43)[C@@H](C)C2)c2ccncc2n1-c1ccc(F)cc1C(=O)N(CC(F)(F)F)C(C)C` (single isomer, unassigned) [Example 53-3, 2-(3-((2R*,4S*)-1-((1S,2S,5R)-3-Azabicyclo[3.1.0]hexane-2-carbonyl)-2-methylpiperidine-4-carbonyl)-2-methyl-1H-pyrrolo[2,3-c]pyridin-1-yl)-5-fluoro-N-isopropyl-N-(2,2,2-trifluoroethyl)benzamide] as the compound, how does the pIC50 (Menin protein) read?
Answer: 7.85

Question: And the pKi (muscarinic M2 receptor [1])?
Answer: 4.70

Question: `Cc1c(C(=O)C2CCN(C(=O)[C@H]3NC[C@@H]4C[C@@H]43)CC2)c2ccncc2n1-c1ccc(F)cc1C(=O)N(C(C)C)C(C)C` (single isomer, unassigned) [Example 55-2] was tested. Which pIC50 (Menin protein) did it give?
Answer: 8.05

Question: And the pIC50 (hERG)?
Answer: 4.08

Question: And the pKi (muscarinic M2 receptor [1])?
Answer: 4.28

Question: With `CC(C)N(C(=O)c1cc(F)ccc1-n1cc(C(=O)[C@H]2CCN(C(=O)[C@H]3N[C@@H]4CC[C@H]3C4)C2)c2ccncc21)C(C)C` [Example 2, 2-(3-((S)-1-((1R,3S,4S)-2-Azabicyclo[2.2.1]heptane-3-carbonyl)pyrrolidine-3-carbonyl)-1H-pyrrolo[2,3-c]pyridin-1-yl)-5-fluoro-N,N-diisopropylbenzamide] as the compound, how does the pIC50 (hERG) read?
Answer: < 3.70

Question: What about the pIC50 (muscarinic M2 receptor [2]) of the same compound?
Answer: 5.28

Question: What about the pKi (muscarinic M2 receptor [1]) of the same compound?
Answer: 6.10

Question: With `CC(C)N(C(=O)c1cc(F)ccc1-n1cc(C(=O)C2CN(C(=O)[C@H]3N[C@@H]4CC[C@H]3C4)C2)c2ccncc21)C(C)C` [Example 5, 2-(3-(1-((1R,3S,4S)-2-Azabicyclo[2.2.1]heptane-3-carbonyl)azetidine-3-carbonyl)-1H-pyrrolo[2,3-c]pyridin-1-yl)-5-fluoro-N,N-diisopropylbenzamide] as the compound, how does the pIC50 (hERG) read?
Answer: < 3.70

Question: And the pIC50 (muscarinic M2 receptor [2])?
Answer: < 4.00

Question: And the pKi (muscarinic M2 receptor [1])?
Answer: 5.18

Question: What does the source list for `CC(C)N(C(=O)c1cc(F)ccc1-n1cc(C(=O)C2CN(C(=O)[C@H]3N[C@H]4C[C@@H]3[C@@H](F)C4)C2)c2ccncc21)C(C)C` [Example 7, 5-Fluoro-2-(3-(1-((1S,3S,4S,5S)-5-fluoro-2-azabicyclo[2.2.1]heptane-3-carbonyl)azetidine-3-carbonyl)-1H-pyrrolo[2,3-c]pyridin-1-yl)-N,N-diisopropylbenzamide]?
Answer: pIC50 (hERG): 3.82; pKi (muscarinic M2 receptor [1]): 4.84

Question: With `CCN(C(=O)c1cc(F)ccc1-n1cc(C(=O)C2CCN(C(=O)[C@H]3NC[C@@H]4C[C@@H]43)CC2)c2ccncc21)C(C)C` [Example 28, 2-(3-(1-((1S,2S,5R)-3-Azabicyclo[3.1.0]hexane-2-carbonyl)piperidine-4-carbonyl)-1H-pyrrolo[2,3-c]pyridin-1-yl)-N-ethyl-5-fluoro-N-isopropylbenzamide] as the compound, how does the pIC50 (Menin protein) read?
Answer: 7.77

Question: And the pIC50 (hERG)?
Answer: < 3.70

Question: What about the pKi (muscarinic M2 receptor [1]) of the same compound?
Answer: 6.40

Question: What does the source list for `CCN(C(=O)c1cc(F)ccc1-n1cc(C(=O)C2CCN(C(=O)[C@H]3N[C@@H]4CC[C@H]3C4)CC2)c2ccncc21)C(C)C` [Example 31, 2-(3-(1-((1R,3S,4S)-2-Azabicyclo[2.2.1]heptane-3-carbonyl)piperidine-4-carbonyl)-1H-pyrrolo[2,3-c]pyridin-1-yl)-N-ethyl-5-fluoro-N-isopropylbenzamide]?
Answer: pIC50 (hERG): < 3.70; pKi (muscarinic M2 receptor [1]): 7.00

Question: How did the pIC50 (Menin protein) turn out when `C[C@@H]1COC[C@@H](C)N1C(=O)c1cc(F)ccc1-n1cc(C(=O)C2CCN(C(=O)[C@H]3N[C@@H]4CC[C@H]3C4)CC2)c2ccncc21` [Example 34, (1-((1R,3S,4S)-2-Azabicyclo[2.2.1]heptane-3-carbonyl)piperidin-4-yl)(1-(2-((3R,5R)-3,5-dimethylmorpholine-4-carbonyl)-4-fluorophenyl)-1H-pyrrolo[2,3-c]pyridin-3-yl)methanone] was run?
Answer: 7.54

Question: How did the pIC50 (hERG) turn out when `CC(C)n1nccc1-c1cc(F)ccc1-n1cc(C(=O)C2CCN(C(=O)[C@H]3N[C@@H]4CC[C@H]3C4)CC2)c2ccncc21` [Example 36, (1-((1R,3S,4S)-2-Azabicyclo[2.2.1]heptane-3-carbonyl)piperidin-4-yl)(1-(4-fluoro-2-(1-isopropyl-1H-pyrazol-5-yl)phenyl)-1H-pyrrolo[2,3-c]pyridin-3-yl)methanone] was run?
Answer: 4.44

Question: What about the pKi (muscarinic M2 receptor [1]) of the same compound?
Answer: 5.92

Question: `CC(C)c1ncncc1-c1cc(F)ccc1-n1cc(C(=O)C2CCN(C(=O)[C@H]3N[C@@H]4CC[C@H]3C4)CC2)c2ccncc21` [Example 37, (1-((1R,3S,4S)-2-Azabicyclo[2.2.1]heptane-3-carbonyl)piperidin-4-yl)(1-(4-fluoro-2-(4-isopropylpyrimidin-5-yl)phenyl)-1H-pyrrolo[2,3-c]pyridin-3-yl)methanone] was tested. Which pIC50 (hERG) did it give?
Answer: < 3.70

Question: And the pKi (muscarinic M2 receptor [1])?
Answer: 6.52

Question: With `CC(C)c1ncccc1-c1cc(F)ccc1-n1cc(C(=O)C2CCN(C(=O)[C@H]3N[C@@H]4CC[C@H]3C4)CC2)c2ccncc21` [Example 38, (1-((1R,3S,4S)-2-Azabicyclo[2.2.1]heptane-3-carbonyl)piperidin-4-yl)(1-(4-fluoro-2-(2-isopropylpyridin-3-yl)phenyl)-1H-pyrrolo[2,3-c]pyridin-3-yl)methanone] as the compound, how does the pIC50 (hERG) read?
Answer: 4.59

Question: What about the pKi (muscarinic M2 receptor [1]) of the same compound?
Answer: 6.52

Question: `CCN(C(=O)c1cc(F)ccc1-n1c(C)c(C(=O)C2CCN(C(=O)[C@H]3N[C@@H]4CC[C@H]3C4)CC2)c2ccncc21)C(C)C` [Example 46, 2-(3-(1-((1R,3S,4S)-2-Azabicyclo[2.2.1]heptane-3-carbonyl)piperidine-4-carbonyl)-2-methyl-1H-pyrrolo[2,3-c]pyridin-1-yl)-N-ethyl-5-fluoro-N-isopropylbenzamide] was tested. Which pIC50 (hERG) did it give?
Answer: < 3.70

Question: And the pKi (muscarinic M2 receptor [1])?
Answer: 5.15
